Experimental data taken from patent US20080033045A1, “TREATMENT OF PSYCHIATRIC DISORDERS” (Myriad Genetics, Incorporated, priority 2006, published 2008).

Test system: Alzheimer's disease patients
Assay: Clinical trial in Alzheimer's disease patients, analysis of psychiatric disorder events (MedDRA adverse events)
Assay type: in vivo, human
Protocol: A clinical trial with (R)-2-(2-fluoro-4-biphenylyl)propionic acid (USAN name of tarneflurbil) was conducted according to the method disclosed in U.S. patent application Ser. No. 10/889,971, filed Jul. 12, 2004, (US publication no. 20050042284) which is expressly incorporated herein by reference in its entirety. In this clinical trial, Alzheimer's disease patients were treated with placebo, 400 mg tarenflurbil twice daily, or 800 mg tarenflurbil twice daily for one year. Analysis of the psychiatric disorder events yielded the following results.

[1] = 400 mg BID for one year, N = 40
[2] = 800 mg BID for one year, N = 50

C[C@@H](C(=O)O)c1ccc(-c2ccccc2)c(F)c1 [tarenflurbil, (R)-2-(2-fluoro-4-biphenylyl)propionic acid]
Abnormal behaviour, number [1]: 0
Abnormal dreams, number [1]: 0
Aggression, number [1]: 0
Agitation, number [1]: 2
Agitation, percent of N [1]: (5%)
Anger, number [1]: 1
Anger, percent of N [1]: (2.5%)
Anxiety, number [1]: 2
Anxiety, percent of N [1]: (5%)
Apathy, number [1]: 0
Confusional state, number [1]: 4
Confusional state, percent of N [1]: (10%)
Delusion, number [1]: 1
Delusion, percent of N [1]: (2.5%)
Depression, number [1]: 1
Depression, percent of N [1]: (2.5%)
Hallucination, number [1]: 0
Hallucination, visual, number [1]: 1
Hallucination, visual, percent of N [1]: (2.5%)
Insomnia, number [1]: 0
Libi do increased, number [1]: 1
Libi do increased, percent of N [1]: (2.5%)
Mood altered, number [1]: 0
Mood swings, number [1]: 1
Mood swings, percent of N [1]: (2.5%)
Nightmare, number [1]: 0
Number of Patients With at Least One Adverse Event (Psychiatric Disorder) [1]: 12
Paranoia, number [1]: 1
Paranoia, percent of N [1]: (2.5%)
Patients With at Least One Adverse Event (Psychiatric Disorder), percent of N [1]: (30%)
Psychotic disorder, number [1]: 1
Psychotic disorder, percent of N [1]: (2.5%)
Sleep disorder, number [1]: 1
Sleep disorder, percent of N [1]: (2.5%)
Total Number of Adverse Events (Psychiatric Disorders, MedDRA) [1]: 17
Abnormal behaviour, number [2]: 0
Abnormal dreams, number [2]: 0
Aggression, number [2]: 0
Agitation, number [2]: 1
Agitation, percent of N [2]: (2%)
Anger, number [2]: 0
Anxiety, number [2]: 2
Anxiety, percent of N [2]: (4%)
Apathy, number [2]: 0
Confusional state, number [2]: 0
Delusion, number [2]: 0
Depression, number [2]: 4
Depression, percent of N [2]: (8%)
Hallucination, number [2]: 0
Hallucination, visual, number [2]: 0
Insomnia, number [2]: 1
Insomnia, percent of N [2]: (2%)
Libi do increased, number [2]: 0
Mood altered, number [2]: 1
Mood altered, percent of N [2]: (2%)
Mood swings, number [2]: 0
Nightmare, number [2]: 1
Nightmare, percent of N [2]: (2%)
Number of Patients With at Least One Adverse Event (Psychiatric Disorder) [2]: 7
Paranoia, number [2]: 0
Patients With at Least One Adverse Event (Psychiatric Disorder), percent of N [2]: (14%)
Psychotic disorder, number [2]: 0
Sleep disorder, number [2]: 0
Total Number of Adverse Events (Psychiatric Disorders, MedDRA) [2]: 10
number of psychiatric events (incidence) (treatment group, statistical analysis, p=0.02): reduce the incidence of psychiatric events
time to progression to psychiatric events (onset) (treatment group, statistical analysis, p=0011): delay the onset of
